Laboratory results taken from patent US20070049538A1, “METHODS FOR USING CUCURBITACIN COMPOUNDS” (SOUTH DAKOTA STATE UNIVERSITY, priority 2005, published 2007).
Like-named read-outs stand apart in the source and are kept apart here. One block for each molecule: values may come before it.

How the values were obtained:
[1] = tested on: HepG2 cells; assay type: cell-based, human
[2] = Chromatographic hydrophobicity index (CHI) by RP-HPLC in buffered methanol; assay type: physicochemical; details: for CHIMeOH: buffered methanol pH 7.0, Econosil C18 150 mm, Eq. (4)
Experimental: (§1) We used Dynamax liquid chromatograph (Varian Chromatography Systems) with PDA-2 photodiode array UV detector, controlled by the Dynamax PC Chromatography Data System (v. 1.9) software and Dynamax dual pump solvent delivery system, model SD-200. […] Cucurbitacins analytical separation was optimized on Alltima C18 (Alltech; 250 mm×4.6 mm, 5 μm) HPLC column, at gradient elution in acetonitrile (ACN, 30-70% ACN in 57 min), and in MeOH (60-75% MeOH in 50 min). Cucurbitacins stock concentration of 10^−2M in DMSO:ethanol (1:1) was standardized against pure cucurbitacin I (Indofine Chemical Company, Hillsborough, N.J.) by analytical HPLC means. Compounds CHI was measured in both ACN, by using Alltima C18 column, and in MeOH, by using Econosil C18 column (Alltech; 150 mm×4.6 mm, 5 μm). Analytical separations were conducted at a flow rate of 1 ml/min. The aqueous phase was buffered for the CHI measurement. For this purpose, solid ammonium acetate (Fisher Sci. Co., Fair Lawn, N.J.) was dissolved in deionized distilled water at 50 mM final concentration and its pH adjusted to 7.0.
A standard mixture of 10 compounds including 19-21, 23-27, aniline (compound 28) and bromobenzene (compound 29), dissolved in MeOH, was injected at five isochratic elution, at 40, 45, 50, 55, and 60% MeOH. Then the mixture was injected at fast gradient elution to establish the correlation from Eq. (1). The fast linear gradient elution was optimized for 30-100% MeOH in aqueous buffer with 10 min runtime.
(§2) Cucurbitacins lipophilicity was measured by RP-HPLC. […] Due to its high viscosity, aqueous MeOH required a shorter column than the one applied for ACN. First, the C18 columns were calibrated against a standard mixture, and the relationships established between the fast gradient tR and φ0 or published CHI (see Eqs. (2)-(4) from Table 2). Second, cucurbitacins were injected at fast gradient elution under similar conditions, and their CHI calculated (Table 4) from Eqs. (2)-(4). Eqs.

[3] = Chromatographic hydrophobicity index (CHI) by RP-HPLC in buffered acetonitrile; assay type: physicochemical; set-up: key: CHI = φ0 (isocratic hydrophobicity index), = A·tR + B; ACN % scale; details: for CHIACN1: buffered acetonitrile pH 7.0, Alltima C18 250 mm, Eq. (2) from isocratic φ0; for CHIACN2: buffered acetonitrile pH 7.0, Eq. (3) calibrated against published CHI
Experimental: as §1
All standard compounds were purchased from Acros (Acros Organics, NJ). The chromatographic lipophilicity or hydrophobicity was determined applying Valkó's technique (Valkó et al., Anal. Chem. 69 (1997) 2022, the entire disclosure of which is herein incorporated by reference). A standard mixture of seven compounds was prepared in solution: theophylline (compound 19), benzimidazole (compound 20), acetophenone (compound 21), indole (compound 22), propiophenone (compound 23), butyrophenone (compound 24), and valerophenone (compound 25). […] The retention factor, log k=log((tR-t0)/t0), was calculated for each analyte from five good injections of […] sample. The dead time (t0) was measured by injecting NaNO3 together with the sample. Then, the log k values were plotted against isocratic ACN concentrations to establish the linear regression equations for each analyte. From each straight line the isocratic hydrophobicity index was computed, φ0=(intercept/slope). Further, the calibration mixture was injected at fast gradient elution, 0-22 min 0-100% ACN, and three additional minutes at 100% ACN. The φ0 values for the test compounds were plotted against gradient retention time and the linear equation determined from the following equation: φ0=CHI=AtR+B (1)
The gradient elution conditions were similar to the one from the first approach.
as §2

[4] = tested on: HSC-T6 cells; assay: Cytotoxicity on HSC-T6 cells (experiment 3); assay type: cell-based, rat; details: read-out: Experiment 3 IC50 (T)
From the text: Cytotoxicity of all cucurbitacin analogs was additionally measured in experiment 3 (Table 8).

[5] = tested on: HepG2 cells; assay: Cucurbitacins cytotoxicity on HepG2 cells (MTT viability assay); assay type: cell-based, human
Experimental: HepG2 (human hepatocellular carcinoma, ATCC) cells were grown in EMEM (Gibco, Grand Island, N.Y.) supplemented with 10% fetal bovine serum (FBS), and 1% penicillin/fungizone mixture (Gibco). Thabrew's optimized procedure (Thabrew et al., J. Pharm. Pharmcol. 49 (1994) 1442, the entire disclosure of which is herein incorporated by reference) was followed. Cells were batch cultured for 10 days, then seeded at concentration of 30,000 cells/well in fresh media in 96-well microtiter plastic plates at 37° C. for a day. Then cells were exposed to different concentrations of cucurbitacins at final volume of 100 μl/well. Five-fold serial dilution of compounds was carried out in the plate for five consecutive wells. After 24 h of incubation with chemicals, live cells were visualized using the MTT viability assay (Promega, Madison, Wis.). The absorbance was measured at 570 nm. Negative (without cells) and positive (without test chemicals) controls were also incubated with each plate. […] At least three reproducible experiments were performed per compound with three replicate wells per concentration.
Cells were challenged with cu-curbitacins at various concentrations for a day and then live cells quantified with MTT dye. This period of time measures exclusively compounds cytotoxicity, while longer incubation time may lead to interference from metabolites.

[6] = tested on: HSC-T6 cells; assay: Serum-driven HSC-T6 proliferation, experiment 1 (4 h challenge, two days drug-free growth); assay type: cell-based, rat; details: HSC-T6, 4 h challenge, then two days drug-free media
Experimental: The proliferation effect of serum on HSC-T6 cells was optimized and cucurbitacin antiproliferative activity was measured. Serum contains a large number of growth factors, hormones and other nutrients, which help cells to grow and multiply. Several trials were conducted. In experiment 1, cells were challenged with cucurbitacin analogs for 4 h and then cells were grown in drug-free media for two additional days.
HSC-T6 cells were photographed under phase-contrast microscope to record possible changes in cell morphology during experiment 1. […] We are monitoring specifically the effect of compound on the cells, cell recovery after 4 h challenge, and relative cell proliferation. […] Live cells are quantified at the end of the assay (row 4) with MTT dye.
(§3) We established several experimental conditions such as 4 hours of incubation time with cucurbitacin, and 2 day cell incubation with fresh media after challenging with cucurbitacin (Exp. 1). Other experiments involved addition of cucurbitacin for 24 hours over starved cells (Exp. 2) vs. proliferating cells (Exp. 3), and one day incubation of cells with fresh media after challenge. […] Because of that, the challenge time was increased to 24 hours (Exp. 2 and 3).
We modified this approach. Our assay included a second control (ZC) supplemented with no serum intended to measure cucurbitacin anti-proliferation effect relative to the number of cells generated during challenge instead of the total number of cells present in each well.

[7] = mouse, in vivo; cited from earlier work
[8] = tested on: HepG2 cells; assay: cells; details: read-out: EC50 cytoprotection; Table 7; HepG2 against CCl4 toxicity; estimated
From the text: Experimental conditions were standardized on silybin. […]
The ratio of IC50-to-EC50 (hereafter T/A) is also indicated in this table, which gives the margin between toxic and cytoprotective concentrations.

[9] = tested on: HSC-T6 cells; assay: Serum-driven HSC-T6 proliferation, experiment 3 (24 h, proliferating cells); assay type: cell-based, rat; details: HSC-T6, 24 h, proliferating cells; read-out: Experiment 3 EC50 (A)
Experimental: To overcome this problem, the amount of incubation time was increased to 24 h, and cucurbitacin activity measured on starved (Exp. 2) or proliferative (Exp. 3) cells (Table 8). Cells turned quiescent when serum was not supplemented for one day (Exp. 2). Activity of a few compounds was monitored on quiescent cells, and their activity compared to the ones measured on proliferating cells (Exp. 3).
as §3, with “challenge. The 4 hour incubation period with cucurbitacin triggered anti-proliferation effect. This effect, however, was hindered by a second cycle of cell proliferation during the two-day cell growth period (see silybin, E and I glucosides, and for I-nPr).” for “challenge.”
In experiment 3, only 40% of the cells divided. The ratio of EC50 values for exp. 2 and exp. 3 varied between 3.6 and 12.7. This may indicate differential cytotoxicity of silybin and cucurbitacin analogs over quiescent and active stellate cells. In other words, compounds show higher anti-proliferative activity on active cells than on quiescent cells.

[10] = in vivo; cited from earlier work
[11] = ABTS*+ Radical Cation Decolorization Assay; details: read-out: concentration of 50% inhibition
Experimental: Cucurbitacin B activity was monitored at 50 μM, 100 μM, and 1.8 mM. The time interval was expanded up to 2 hours in case cucurbitacin B was reacting slowly.

Compound: Brc1ccccc1 [Bromobenzene (29), bromobenzene, reference compound]
cell viability ([1]; HepG2, toxin at 20 nM): no viability
CHIMeOH (b) ([2]; standard compounds, isochratic and gradient elution of standard mixture): 69.43 + 0.07

Compound: ClC(Cl)(Cl)Cl [CCl4]
cell viability ([1]; HepG2, toxin at 4.5×10^−3 M): ~50%

Compound: CC(C)(O)/C=C/C(=O)[C@](C)(O)[C@H]1[C@H](O)C[C@@]2(C)[C@@H]3CC=C4[C@@H](C[C@H](O)C(=O)C4(C)C)[C@]3(C)C(=O)C[C@]12C [D, cucurbitacin D]
CHIACN1 [3]: 58.31
CHIACN2 [3]: 55.83
IC50 [4]: 26 µM
IC50 ([5]; Table 4, 24 h incubation, MTT): 77.3 µM
IC50 ([5]; Table 5): 77.3 ± 8.7 µM
IC50 ([5]; Table 7): 77.3 µM
EC50 [6]: 3.8 µM
capillary permeability [7]: enhanced capillary permeability
EC50 [8]: 9 µM
EC50 [9]: 0.07 µM
CHIMeOH [2]: 60.40

Compound: CC(=O)OC(C)(C)/C=C/C(=O)[C@@](C)(O)[C@H]1[C@H](O)C[C@@]2(C)[C@@H]3CC=C4[C@@H](CC(=O)[C@@H](O)C4(C)C)[C@]3(C)C(=O)C[C@]12C [iso-B, iso-cucurbitacin B]
CHIACN1 [3]: 72.86
CHIACN2 [3]: 78.38
protective and preventive activity [10]: significantly reducing serum enzymes level, steatosis, inflammation, and experimental cholestasis
CHIMeOH [2]: 68.50

IC50 [11]: 580 µM
Compound: Cc1c(C)c2c(c(C)c1O)CCC(C)(C(=O)O)O2 (stereo not shown) [trolox, reference compound]
